Experiments:
Format in all cases: cell-based
Cryptococcus neoformans = experiment: CLSI broth microdilution MIC (Example 4)
Protocol: (§1) Antifungal minimum inhibitory concentration (MIC) testing was undertaken as recommended by the CLSI. Briefly, antifungal susceptibility tests were performed for amphotericin B, robenidine (NCL812) and robenidine (NCL) analogs (NCL004, NCL020, NCL023, NCL024, NCL062, NCL094, NCL097, NCL110, NCL113, NCL114, NCL115, NCL135, NCL139, NCL180, NCL181, NCL195, NCL219, NCL220, NCL228, NCL247, NCL250, NCL259, NCL260, NCL263, NCL265, NCL269, NCL274) by standard broth microdilution method (CLSI) in RPMI 1640. Various concentrations (ranging from high to low) of the selected compounds were prepared in RPMI 1640 medium by double dilution in 96-well microtitre plates. Each well contained an inoculum of approximately 2×10^3 cells/mL. The wells without addition of drugs served as negative (no inoculum) and positive (inoculum only) growth controls. Microtitre plates were incubated at 35° C. for 24-48 hours. […] Antifungal MICs were determined for each isolate in duplicate; if the values obtained were different, the MIC test was repeated a third time.

Candida albicans = experiment: CLSI broth microdilution MIC (Example 4)
Protocol: as §1

[1] = test system: Candida albicans ATCC14053; experiment: Broth micro-dilution screen at 16 μg/mL and MIC (Example 9); conditions: single concentration 16 μg/mL; Growth or No growth of C. albicans ATCC14053
Protocol: The antifungal activity of 201 NCL analogs against Candida albicans ATCC14053 in vitro was investigated. A broth micro-dilution method was used, according to CLSI guidelines as described. NCL analogs were dissolved in DMSO and originally screened at a single concentration of 16 μg/mL.

Structure (SMILES)	MIC at 24-48 hours (Cryptococcus neoformans; Cryptococcus neoformans SA1) [µg/mL]	MIC at 24-48 hours (Cryptococcus neoformans; Cryptococcus neoformans SA2) [µg/mL]	MIC at 24-48 hours (Candida albicans; Candida albicans ATCC 90028) [µg/mL]	MIC at 24-48 hours (Candida albicans; Candida albicans SA3) [µg/mL]	Screen at 16 μg/mL [1]
Clc1ccc(/C=N/CC/N=C/c2ccc(Cl)cc2)cc1 [NCL250]	>32	>32	>32	>32	Growth
Clc1ccc(CNCCNCc2ccc(Cl)cc2)cc1 [NCL260]	>32	>32	>32	>32	Growth
Cl.N=C(N)N/N=C/c1ccc(C(F)(F)F)cc1F [NCL263]	>32	>32	>32	>32	Growth
CC(=NNC(=N)N)c1c[nH]c2ccccc12 [NCL269]	>32	>32	>32	>32	Growth

Source: US20230310388A1, “Methods and Compositions for Treating Fungal Infections” (Neoculi Pty Ltd, priority 2020, published 2023)
